Data: US20160318856A1, “Substituted Urea eIF2alpha Kinase Activators” (THE BRIGHAM AND WOMEN'S HOSPITAL, INC., priority 2013, published 2016)
Read-outs that look alike come from different tables or passages of the source.

How the values were obtained:
[1] = test system: eIF2α phosphorylation (eIF2•GTP•Met-tRNAi ternary complex; HRI activation); experiment: surrogate dual luciferase eIF2α phosphorylation (ternary complex) assay; assay type: cell-based, human; details: for maximal fold induction: Homo sapiens
Source text: The dual luciferase expression vector and other plasmids used for these studies were previously described (see, for example, Ziegeler, G. et al. Journal of Biological Chemistry 2010, 285(20), 15408-19). The ternary complex assay, surrogate of eIF2α phosphorylation, has been described elsewhere (see, for example, Chen, T. et al. Nature Chemical Biology 2011, 7(9), 610-6). Briefly, the pBISA vector, which contains seven copies of the tetracycline-regulated transactivator response element (TRE), is flanked on both sides by minimal human cytomegalovirus (CMV) minimal promoters allowing bi-directional transcription and two MCSs (multiple cloning sites). Firefly and renilla luciferases were subcloned into MCS-I and MCS-II, respectively. This plasmid, designated pBISA-DL, transcribes two mRNAs that contain the 90 nucleotide plasmid derived 5′UTR (same sequence in both mRNAs), and the ORF encoding either firefly or renilla luciferase followed by a polyadenylation sequence. This plasmid was further modified by inserting the 5′UTR of ATF-4 mRNA into MCS-I in front of the firefly luciferase mRNA. Transcription from this unit generates an mRNA that contains the firefly luciferase ORF preceded by a 5′UTR composed of 90 nucleotides derived from the plasmid and 267 nucleotides derived from the 5′UTR of ATF-4 mRNA. Transcription from the other unit generates an mRNA that contains the renilla luciferase ORF proceeded only by the 90-nucleotide plasmid-derived sequence in the 5′UTR (pBISA-DL (ATF-4)) (see, for example, Chen, T. et al. Nature Chemical Biology 2011, 7(9), 610-6).
Cells expressing firefly and renilla luciferases were assayed with a dual glow luciferase assay kit, per manufacturer's instruction (Promega Inc., Madison, Wis.). The data calculations were carried out as the ratio of firefly to renilla luciferase signal.
A library of 1900 urea compounds was screened in the surrogate dual luciferase eIF2α phosphorylation (ternary complex) assay. This library was originally assembled and screened for inhibition of sEH by Hammock's group at UC-Davis (see, for example, Chen, T. et al. Nature Chem Biol 2011, 7, 610-616; Ziegeler, G et al. J Biol Chem 2010, 285, 15408-15419). We developed this assay in order to identify compounds that activate HRI, taking advantage of the fact that activated HRI phosphorylates eIF2α thereby reducing the amount of the eIF2•GTP•Met-tRNAi ternary complex that results in inhibition of translation of many mRNAs but paradoxically increases translation of some mRNAs that contain multiple upstream ORF (uORF) in their 5′ untranslated regions (UTRs). In our assay, firefly (F) luciferase mRNA is fused to 5′UTR of activating transcription factor 4 (ATF-4) mRNA that has multiple uORFs while renilla (R) luciferase mRNA is fused to a 5′UTR lacking any uORFs. Compounds that reduce the amount of the ternary complex, such as those activating HRI, would increase F luciferase expression while decreasing the R luciferase expression, resulting in an increased F/R luciferase ratio. To calculate the activity scores, the F/R ratios for every compound-treated wells were normalized to vehicle-treated (DMSO) wells that was arbitrarily set at 1 (F/R=1).

[2] = test system: CRL-2813 human melanoma cancer cells; experiment: cell proliferation (SRB) assay, CRL-2813; assay type: cell-based
Experimental: (§1) Cells were seeded in 96-well plates and maintained for 5 days in the presence of 0.5 to 20 μM of individual compound, and cell proliferation was measured by the sulforhodamine B (SRB) assay as described previously (see, for example, Palakurthi, S. S. et al. Cancer Research 2000, 60(11), 2919-2925). Briefly, at the end of a 5-day treatment, cells were fixed in 10% cold trichloroacetic acid. Cell number was estimated by measuring the remaining bound dye of sulforhodamine B after washing. The percentage of growth was calculated by using the equation: 100×[(T−T0)/(C−T0)], where T and C represent the absorbance in treated and control cultures at Day 5, and T0 at time zero, respectively. If T is less than T0, cell death has occurred and can be calculated from 100×[(T−T0)/T0].

Panc-1 = experiment: cell proliferation (SRB) assay, Panc-1; assay type: cell-based; details: Homo sapiens, Table 7
Experimental: as §1
The compounds shown in Table 7 were evaluated using for activation of HRI using the dual luciferase surrogate eIF2α phosphorylation assay (see, for example, Chen, T. et al. Nature Chem Biol 2011, 7, 610-616) and for inhibition of cell proliferation using the SRB assay (see, for example, Palakurthi, S. S. et al. Cancer Res 2000, 60, 2919-2925) as described above.

[3] = Homo sapiens, CRL2813, SRB assay, Table 7, read-out: IC50 CRL-2813
[4] = cell proliferation assay, Table 2, cell line not named, read-out: IC50
[5] = surrogate eIF2α phosphorylation assay, Table 4, read-out: Emax (F/R)
[6] = Homo sapiens, CRL2813, cell proliferation assay, Table 4, cell line not named, read-out: IC50

SMILES | IC50 [2, 3] [µM] | IC50 (Panc-1) [µM] | Emax (F/R) ([1]; 7.5 μM compound) | Emax (F/R) ([1]; 15 μM compound) | Emax (F/R) ([1]; 30 μM compound) | IC50 [2, 4] [µM] | IC50 [2, 6] [µM] | maximal fold induction ([1]; DMSO = 1, maximum tested concentration 20 μM, read-out: Emax: Maximum activity of compound expressed as fold over vehicle) | C3X: Calculated concentration of compound that will cause three-fold increase in the surrogate eIF2α phosphorylation assay ([1]; Table 7) [µM] | maximal fold induction [1, 5]
O=C(Nc1cccc(OC(F)(F)F)c1)N[C@H]1CC[C@H](Oc2ccc(OC(F)(F)F)cc2)CC1 | 1.2 | 3 |  |  |  |  |  | 14 | 1.3 | 
N#Cc1ccc(NC(=O)N[C@H]2CC[C@H](Oc3ccc(C#N)cc3)CC2)cc1 | 10 | 10 |  |  |  |  |  |  |  | 
O=C(Nc1ccccc1Br)N[C@H]1CC[C@H](OCc2c(F)cccc2F)CC1 [II-3o] |  |  | 0.96 | 0.99 | 0.96 | > 20 |  |  |  | 
O=C(Nc1ccc(Br)cc1)N[C@H]1CC[C@H](OCc2c(F)cccc2F)CC1 [II-3p] |  |  | 0.76 | 0.85 | 0.73 | > 20 |  |  |  | 
O=C(Nc1ccccc1I)N[C@H]1CC[C@H](OCc2c(F)cccc2F)CC1 [II-4o] |  |  | 0.81 | 0.74 | 0.81 | > 20 |  |  |  | 
O=C(Nc1cccc(C(F)(F)F)c1)N[C@H]1CC[C@H](OCc2c(F)cccc2F)CC1 [II-5m] |  |  | 1.13 | 1.15 | 1.11 | > 20 |  |  |  | 
O=C(Nc1ccc(C(F)(F)F)cc1)N[C@H]1CC[C@H](OCc2c(F)cccc2F)CC1 [II-5p] |  |  | 0.91 | 0.79 | 0.85 | > 20 |  |  |  | 
O=C(Nc1ccccc1OC(F)(F)F)N[C@H]1CC[C@H](OCc2c(F)cccc2F)CC1 [II-6o] |  |  | 0.93 | 0.93 | 0.76 | > 20 |  |  |  | 
Cc1cccc(NC(=O)N[C@H]2CC[C@H](OCc3c(F)cccc3F)CC2)c1 [II-7m] |  |  | 0.82 | 0.89 | 0.81 | > 20 |  |  |  | 
Cc1ccccc1NC(=O)N[C@H]1CC[C@H](OCc2c(F)cccc2F)CC1 [II-7o] |  |  | 0.78 | 0.79 | 0.83 | > 20 |  |  |  | 
Cc1ccc(NC(=O)N[C@H]2CC[C@H](OCc3c(F)cccc3F)CC2)cc1 [II-7p] |  |  | 0.81 | 0.81 | 0.77 | > 20 |  |  |  | 
COc1ccccc1NC(=O)N[C@H]1CC[C@H](OCc2c(F)cccc2F)CC1 [II-8o] |  |  | 0.94 | 0.88 | 0.84 | > 20 |  |  |  | 
O=C(Nc1cccc([N+](=O)[O-])c1)N[C@H]1CC[C@H](OCc2c(F)cccc2F)CC1 [II-9m] |  |  | 0.96 | 0.76 | 0.94 | > 20 |  |  |  | 
CSc1cccc(NC(=O)N[C@H]2CC[C@H](OCc3c(F)cccc3F)CC2)c1 [II-10m] |  |  | 1.01 | 0.73 | 1.06 | > 20 |  |  |  | 
CSc1ccccc1NC(=O)N[C@H]1CC[C@H](OCc2c(F)cccc2F)CC1 [II-10o] |  |  | 0.82 | 0.90 | 0.83 | > 20 |  |  |  | 
O=C(Nc1ccccc1)N[C@H]1CC[C@H](OCc2c(F)cccc2F)CC1 [II-11] |  |  | 0.89 | 0.88 | 0.81 | > 20 |  |  |  | 
O=C(Nc1cccc(C(F)(F)F)c1)NC1CCCCC1 [III-1, 1-Cyclohexyl-3-(3-(trifluoromethyl)phenyl)urea] |  |  |  |  |  |  | 13.2 ± 2.3 |  |  | 1.87
O=C(Nc1cccc(C(F)(F)F)c1)NC1CCCC(Oc2ccc(C(F)(F)F)cc2)C1 (stereo not shown) [III-6, 1-(3-(4-(Trifluoromethyl)phenoxy)cyclohexyl)-3-(3-(trifluoromethyl)phenyl)urea] |  |  |  |  |  |  | 3.8 ± 1.2 |  |  | 4.52

More lines, main results first:

IC50 [2, 3] [µM] | IC50 (Panc-1) [µM] | Emax (F/R) ([1]; 7.5 μM compound) | Emax (F/R) ([1]; 15 μM compound) | Emax (F/R) ([1]; 30 μM compound) | IC50 [2, 4] [µM] | IC50 [2, 6] [µM] | SMILES | maximal fold induction ([1]; DMSO = 1, maximum tested concentration 20 μM, read-out: Emax: Maximum activity of compound expressed as fold over vehicle) | C3X: Calculated concentration of compound that will cause three-fold increase in the surrogate eIF2α phosphorylation assay ([1]; Table 7) [µM] | maximal fold induction [1, 5]
7 | > 10 |  |  |  |  |  | N#Cc1ccc(O[C@H]2CC[C@H](NC(=O)Nc3cccc(C#N)c3)CC2)cc1 |  |  | 
 |  | 1.07 | 1.04 | 0.98 | > 20 |  | O=C(Nc1cccc(Br)c1)N[C@H]1CC[C@H](OCc2c(F)cccc2F)CC1 [II-3m] |  |  | 
 |  | 0.69 | 0.75 | 0.72 | > 20 |  | O=C(Nc1cccc(I)c1)N[C@H]1CC[C@H](OCc2c(F)cccc2F)CC1 [II-4m] |  |  | 
 |  | 0.76 | 0.82 | 0.67 | > 20 |  | O=C(Nc1ccc(I)cc1)N[C@H]1CC[C@H](OCc2c(F)cccc2F)CC1 [II-4p] |  |  | 
 |  | 0.95 | 0.80 | 0.64 | > 20 |  | O=C(Nc1ccccc1C(F)(F)F)N[C@H]1CC[C@H](OCc2c(F)cccc2F)CC1 [II-5o] |  |  | 
 |  | 0.81 | 0.80 | 0.98 | > 20 |  | O=C(Nc1ccc(OC(F)(F)F)cc1)N[C@H]1CC[C@H](OCc2c(F)cccc2F)CC1 [II-6p] |  |  | 
 |  | 0.84 | 0.97 | 0.74 | > 20 |  | COc1cccc(NC(=O)N[C@H]2CC[C@H](OCc3c(F)cccc3F)CC2)c1 [II-8m] |  |  | 
 |  | 0.74 | 0.71 | 0.68 | > 20 |  | COc1ccc(NC(=O)N[C@H]2CC[C@H](OCc3c(F)cccc3F)CC2)cc1 [II-8p] |  |  | 
 |  | 0.96 | 0.90 | 0.74 | > 20 |  | O=C(Nc1ccccc1[N+](=O)[O-])N[C@H]1CC[C@H](OCc2c(F)cccc2F)CC1 [II-9o] |  |  | 
 |  | 0.87 | 0.83 | 0.83 | > 20 |  | O=C(Nc1ccc([N+](=O)[O-])cc1)N[C@H]1CC[C@H](OCc2c(F)cccc2F)CC1 [II-9p] |  |  | 
 |  | 0.94 | 0.98 | 1.07 | > 20 |  | CSc1ccc(NC(=O)N[C@H]2CC[C@H](OCc3c(F)cccc3F)CC2)cc1 [II-10p] |  |  | 
 |  |  |  |  |  | > 20 | O=C(Nc1cccc(C(F)(F)F)c1)NC1CCC(O)CC1 (stereo not shown) [III-2, 1-(4-Hydroxycyclohexyl)-3-(3-(trifluoromethyl)phenyl)urea] |  |  | 0.89
 |  |  |  |  |  | > 20 | COC1CCC(NC(=O)Nc2cccc(C(F)(F)F)c2)CC1 (stereo not shown) [III-3, 1-(4-Methoxycyclohexyl)-3-(3-(trifluoromethyl)phenyl)urea] |  |  | 1.16
